{
  "source": "patent US20240293563A1",
  "about": "“GLP-1 RECEPTOR LIGAND MOIETY CONJUGATED OLIGONUCLEOTIDES AND USES THEREOF” (priority 2017, published 2024)",
  "key": {"MALAT1 [1]": {"system": "MALAT1", "test": "MALAT1 in situ hybridization in beta islet cells after i.v. GLP-1 ASO conjugates with various linkers", "assay_type": "in vivo, mouse", "conditions": "male C57BL/6 mice; intravenous 0.6 μmol/kg/week once a week for three weeks; 72 hours after final injection"}, "MALAT-1": {"system": "MALAT-1", "test": "Dose-dependent reduction of MALAT-1 expression in LVX-GLP1R cells", "assay_type": "cell-based, human", "method": "HEK cells stably expressing FLAG-tagged GLP1R were generated by infecting HEK 293 cells with FLAG-tagged GLP1R containing lentivirus produced by transfection of 293T cells with pLVX-IRES-Puro (Clontech Laboratories Inc., Mountainview, CA) harboring the FLAG-GLP1R insert. Infected cells were selected with puromycin (2 μg/ml) and then analyzed for receptor expression by western blot and immunofluorescence. Cultured GLP1R cells were plated at a density of 10,000 cells per well and treated with 0.3, 1, 3, 9, 27, 82, 247, 741, 2,222, 6,667, and 20,000 nM modified oligonucleotide for approximately 24 hours. After the treatment period, total RNA was prepared using an RNeasy mini kit (Qiagen, Valencia, CA, USA) and qRT-PCR was performed using the primer probe set RTS2739 (forward sequence: […] (SEQ ID NO: 74), reverse sequence: […] (SEQ ID NO: 75), probe sequence: […] (SEQ ID NO: 76). Briefly, ˜50 ng total RNA in 5 d water was mixed with 0.3 d primer probe sets containing forward and reverse primers (10 μM of each) and fluorescently labeled probe (3 μM), 0.3 W RT enzyme mix (Qiagen), 4.4 d RNase-free water, and 10 d of 2×PCR reaction buffer in a 20 d reaction. Reverse transcription was performed at 48° C. for 10 min, 40 cycles of PCR were conducted at 94° C. for 20 s, and 60° C. for 20 s within each cycle, using StepOne Plus RT-PCR system (Applied Biosystems, Phoenix, AZ, USA). The mRNA levels were normalized to the amount of total RNA present in each reaction as determined by Ribogreen assay (Life Technologies) and normalized to the saline control (100% expression)."}, "FoxO1 protein [2]": {"system": "FoxO1 protein", "test": "FoxO1 protein (Western Blot) in cultured mouse primary islets of Langerhans treated with ASO", "assay_type": "cell-based", "conditions": "Western Blot normalized to α-tubulin; islets treated for 96 hours; 1 μM", "method": "Pancreatic islets were isolated by collagenase digestion from pancreas collected from euthanized 12 to 15 weeks old female B6.Cg-Lepob/J mice and maintained in tissue culture until use. 150 intact islets were placed in plastic Petri Dishes and treated with 1 μM of antisense oligonucleotides for 3 hrs every 24 hrs and harvested after approximately 24 hrs, 48 hrs or 96 hrs total treatment time respectively. After the treatment period, islets were harvested, and half of the islets were used to measure FOXO1 mRNA levels as described herein (Example 9). Half of the islets were homogenized in M-PER protein extraction reagent (Thermo Scientific) containing a protease inhibitor cocktail (Complete Mini and phosphoSTOP, Roche Diagnostics). The protein content of lysates were quantitated using BCA Assay Reagent (Pierce). […] For the anti-FoxO1 antibody, the secondary antibody was HRP-conjugated polyclonal goat anti-Rabbit P0448 (DAKO) and for the anti-α-tubulin antibody, the secondary antibody was HRP-conjugated polyclonal goat anti-mouse P0447 (DAKO). Enhanced chemiluminescence reagents (Pierce) were used for detection. […] Protein levels were quantified by measuring the intensity of the bands on the gel normalized to the intensity of α-tubulin, and expressed as percent of vehicle treated islets. FoxO1 protein levels were set to 100% in vehicle treated islets. […]"}, "FOXO1 mRNA [3]": {"system": "FOXO1 mRNA", "test": "FOXO1 mRNA in isolated islets and liver after 6 weeks repeated administration to ob/ob mice", "assay_type": "in vivo, mouse", "conditions": "ob/ob mice", "method": "Pancreatic islets were isolated by collagenase digestion from pancreas collected from exsanguinated 12 to 15 weeks old female C57BL/6Crl mice. Islets were maintained in tissue culture until use. Islet were dissociated into single cells by shaking in media containing a low extracellular calcium concentration. 10 to 20 intact or dissociated islets were plated on plastic Petri Dishes and treated with 10 μM of antisense oligonucleotides for approximately 24 hrs. After the treatment period cells were harvested, RNA isolated, adjusted to total RNA content, as measured by RIBOGREEN®. MALAT1 or FOXO1 mRNA levels measured by quantitative real-time PCR. […] All data was normalized to the mRNA level of the house keeping gene (RPLP0) in the same sample, measured using a primer probe set with forward sequence […] NO: 71), reverse sequence […] NO: 72) and probe sequence […] NO: 73). Male ob/ob mice (B6.V-Lepob/OlaHsd, Harlan) were assigned to five treatment groups receiving either vehicle, 0.1 μmol/kg ISIS 776102, 0.1 μmol/kg ION 913195, 0.03 ION 913193 or 1 μmol/kg ION 913193. All animals were treated once weekly for 6 weeks. Approximately 120 hrs after last dose all animals were sacrificed, liver samples collected and pancreatic islets isolated, as described herein (Example 9), for mRNA analysis. FOXO1 mRNA levels were quantified as described herein (Example 9) and mRNA levels expressed relative to housekeeping gene in each sample (RPLP0)."}, "FOXO1 mRNA [4]": {"system": "FOXO1 mRNA", "test": "FOXO1 mRNA in cultured mouse primary islets of Langerhans treated with ASO", "assay_type": "cell-based", "conditions": "for Islet FOXO1 mRNA levels relative to control (RPLP0): percent of untreated cells, 1 μM ASO 3 hrs every 24 hrs", "method": "Pancreatic islets were isolated by collagenase digestion from pancreas collected from exsanguinated 12 to 15 weeks old female C57BL/6Crl mice. Islets were maintained in tissue culture until use. Islet were dissociated into single cells by shaking in media containing a low extracellular calcium concentration. 10 to 20 intact or dissociated islets were plated on plastic Petri Dishes and treated with 10 μM of antisense oligonucleotides for approximately 24 hrs. After the treatment period cells were harvested, RNA isolated, adjusted to total RNA content, as measured by RIBOGREEN®. MALAT1 or FOXO1 mRNA levels measured by quantitative real-time PCR. […] All data was normalized to the mRNA level of the house keeping gene (RPLP0) in the same sample, measured using a primer probe set with forward sequence […] NO: 71), reverse sequence […] NO: 72) and probe sequence […] NO: 73). Pancreatic islets were isolated by collagenase digestion from pancreas collected from euthanized 12 to 15 weeks old female B6.Cg-Lepob/J mice and maintained in tissue culture until use. 150 intact islets were placed in plastic Petri Dishes and treated with 1 μM of antisense oligonucleotides for 3 hrs every 24 hrs and harvested after approximately 24 hrs, 48 hrs or 96 hrs total treatment time respectively. After the treatment period, islets were harvested, and half of the islets were used to measure FOXO1 mRNA levels as described herein (Example 9). Half of the islets were homogenized in M-PER protein extraction reagent (Thermo Scientific) containing a protease inhibitor cocktail (Complete Mini and phosphoSTOP, Roche Diagnostics). The protein content of lysates were quantitated using BCA Assay Reagent (Pierce). […] For the anti-FoxO1 antibody, the secondary antibody was HRP-conjugated polyclonal goat anti-Rabbit P0448 (DAKO) and for the anti-α-tubulin antibody, the secondary antibody was HRP-conjugated polyclonal goat anti-mouse P0447 (DAKO). Enhanced chemiluminescence reagents (Pierce) were used for detection."}, "FoxO1 protein [5]": {"system": "FoxO1 protein", "test": "FoxO1 protein levels in islets isolated from ob/ob mice treated for 6 weeks", "assay_type": "in vivo, mouse", "method": "Pancreatic islets were isolated by collagenase digestion from pancreas collected from euthanized 12 to 15 weeks old female B6.Cg-Lepob/J mice and maintained in tissue culture until use. 150 intact islets were placed in plastic Petri Dishes and treated with 1 μM of antisense oligonucleotides for 3 hrs every 24 hrs and harvested after approximately 24 hrs, 48 hrs or 96 hrs total treatment time respectively. After the treatment period, islets were harvested, and half of the islets were used to measure FOXO1 mRNA levels as described herein (Example 9). Half of the islets were homogenized in M-PER protein extraction reagent (Thermo Scientific) containing a protease inhibitor cocktail (Complete Mini and phosphoSTOP, Roche Diagnostics). The protein content of lysates were quantitated using BCA Assay Reagent (Pierce). […] For the anti-FoxO1 antibody, the secondary antibody was HRP-conjugated polyclonal goat anti-Rabbit P0448 (DAKO) and for the anti-α-tubulin antibody, the secondary antibody was HRP-conjugated polyclonal goat anti-mouse P0447 (DAKO). Enhanced chemiluminescence reagents (Pierce) were used for detection. Male ob/ob mice (B6.V-Lepob/OlaHsd, Harlan) were assigned to five treatment groups receiving either vehicle, 0.1 μmol/kg ISIS 776102, 0.1 μmol/kg ION 913195, 0.03 ION 913193 or 1 μmol/kg ION 913193. All animals were treated once weekly for 6 weeks. Approximately 120 hrs after last dose all animals were sacrificed, liver samples collected and pancreatic islets isolated, as described herein (Example 9), for mRNA analysis. FOXO1 mRNA levels were quantified as described herein (Example 9) and mRNA levels expressed relative to housekeeping gene in each sample (RPLP0). Male ob/ob mice were assigned to five treatment groups as described herein (Example 17) Approximately 120 hrs after last dose all animals were sacrificed and pancreatic islets isolated for FoxO1 protein analysis as described herein (Example 10). Random samples were selected from each treatment group and loaded on each gel such that at least one sample from each treatment group was analysed on the same gels. FoxO1 protein levels were measured by quantifying the intensity and normalized against the α-tublin levels in the same sample. All samples within individual gels were expressed as percentage of the levels measured in islets of animals receiving ION 913195."}, "MALAT1 [6]": {"system": "MALAT1", "test": "Effect of peptide composition and attachment point on peptide-conjugated ASO activity in LVX-GLP1R cells", "assay_type": "cell-based, human", "conditions": "7 doses in a 4-fold dilution series, MALAT1 RNA"}, "[7]": {"conditions": "0.03 μmol/kg once weekly for 6 weeks"}, "[8]": {"conditions": "0.1 μmol/kg once weekly for 6 weeks"}},
  "note": "Square brackets hold non-standard residues; d marks the D form. Side chains are listed from the residue outwards. Ends that are not written are not given here. 5'‑hexylamino oligonucleotide ISIS 722061 = not defined here; 5'‑hexylamino oligonucleotide ION 913192 = not defined here; Aib = CC(C)(N)C(=O)O; Mpa = O=C(O)CCS",
  "data": [
    {"substance": "ION 962963 (H[Aib]EGTFTSDVSSYLEEQAAKEFIAWLVKGGPSSGAPPPSC([Mpa-5'‑hexylamino oligonucleotide ISIS 722061])-NH2; reading uncertain; also: Cys40 joined to the linker by a disulfide)", "values": [
      {"measurement": "MALAT1 expression in beta islet cells compared to saline control (in situ hybridization)", "setting": "MALAT1 [1]", "result": "reduced"},
      {"measurement": "dose-dependent inhibition of MALAT-1", "setting": "MALAT-1; GLP1R HEK cells, GLP-1 complexed ASOs with or without a TCA linker versus parent", "result": "increased dose-dependent inhibition"},
      {"measurement": "IC50", "setting": "MALAT-1; approximately 24 hours, read-out: IC50 (MALAT-1 expression in GLP1R HEK cells)", "result": 350, "unit": "nM"}
    ]},
    {"substance": "ION 913193 (H[Aib]EGTFTSDVSSYLEEQAAKEFIAWLVKGGPSSGAPPPSC([Mpa-5'‑hexylamino oligonucleotide ION 913192])-NH2; reading uncertain; also: Cys40 joined to the linker by a disulfide)", "values": [
      {"measurement": "FoxO1 protein levels, percent of vehicle treated islets", "setting": "FoxO1 protein [2]", "result": 5, "unit": "%"},
      {"measurement": "average FOXO1 mRNA reduction in isolated islets of Langerhans", "setting": "FOXO1 mRNA [3]; [7]", "result": 42, "unit": "%"},
      {"measurement": "average FOXO1 mRNA reduction in isolated islets of Langerhans", "setting": "FOXO1 mRNA [3]; [8]", "result": 72, "unit": "%"},
      {"measurement": "reduction in FOXO1 mRNA", "setting": "FOXO1 mRNA [4]; mouse islets, 1 μM ASO, summary of Table 2", "result": "more than 70%"},
      {"measurement": "Islet FOXO1 mRNA levels relative to control (RPLP0)", "setting": "FOXO1 mRNA [4]; 24 hours", "result": 31, "unit": "%"},
      {"measurement": "Islet FOXO1 mRNA levels relative to control (RPLP0)", "setting": "FOXO1 mRNA [4]; 48 hours", "result": 30, "unit": "%"},
      {"measurement": "Islet FOXO1 mRNA levels relative to control (RPLP0)", "setting": "FOXO1 mRNA [4]; 96 hours", "result": 25, "unit": "%"},
      {"measurement": "Foxo1 protein levels reduced relative to ION 913195", "setting": "FoxO1 protein [5]; [7]", "result": 57, "unit": "%"},
      {"measurement": "Foxo1 protein levels reduced relative to animals treated with 0.1 μmol/kg ISIS 776102", "setting": "FoxO1 protein [5]; [7]", "result": 64, "unit": "%"},
      {"measurement": "Foxo1 protein levels reduced relative to ION 913195", "setting": "FoxO1 protein [5]; [8]", "result": 81, "unit": "%"},
      {"measurement": "Foxo1 protein levels reduced relative to animals treated with 0.1 μmol/kg ISIS 776102", "setting": "FoxO1 protein [5]; [8]", "result": 36, "unit": "%"}
    ]},
    {"substance": "ION 1083569 (HSEGTFTSDVSSYLEGQAAKEFIAWLVKGRX; C-terminal Z = 4-azidonorleucine, joined by a click reaction to the 5'-BCN MALAT1 oligonucleotide ION 791173; C-terminal amide)", "values": [
      {"measurement": "IC50", "setting": "MALAT1 [6]", "result": 2020, "unit": "nM"}
    ]}
  ]
}
